Data on 1 compound can be found in article PMC9324262, “Selective CDK9 Inhibition by Natural Compound Toyocamycin in Cancer Cells” (Cancers, 2022).

“Also recorded” adds a separate entry of the source.

Test [1] deals with HCT116 SFRP1-GFP colon cancer cells. The experiment in a line: GFP reactivation in HCT116 SFRP1-GFP model. It is filed as cell-based, human. The conditions noted are these: dose-response. Here is the method: YB5 cells are derived from SW48 cells (human colon cancer cell line), and contain a single insertion of a DNA hypermethylated cytomegalovirus (CMV) promoter driving the green fluorescent protein (GFP) gene, as previously described. YB5 cells are cultured in L-15 medium supplemented with 10% fetal bovine serum and grown in log-phase in 1% CO2 atmosphere. YB5 cells were authenticated by DNA fingerprinting prior to drug screening and validation experiments. GFP expression in YB5 cells is silenced in >99.9% of the cells due to the CMV promoter DNA hypermethylation and repressive chromatin marks around the transcriptional start site. The human HCT116 colon cancer-derived GFP-reporter system, comprising a GFP gene under the control of an endogenously hypermethylated SFRP1 gene promoter, was kindly provided by Dr. Stephen Baylin (Johns Hopkins University). These cells are cultured in McCoy’s 5A medium supplemented with 10% fetal bovine serum and grown in log-phase in 5% CO2 atmosphere at 37 °C. […]
After treatment, YB5 cells were trypsinized for 15 min and resuspended in L-15 media containing propidium iodide (PI) to stain dead cells. GFP expression and PI staining were quantified by a BD LSR II flow cytometer (BD Biosciences, San Jose, CA, USA). A maximum of 10,000 cells was analyzed per well. […]

The test system of the next test is YB5 cells. Briefly: anchorage-dependent clonogenic assay. It is filed as cell-based, human. The conditions noted are these: 2 weeks drug-free. Here is the method:
Two hundred YB5 cells were seeded per well in 6-well plates. On the following day, YB5 cells were treated with toyocamycin for 24 h or 72 h. Decitabine (10–50 nM for 72 h) was used as a positive control for the loss of clonogenic potential. Drugs and media were replaced each day. After treatment, media was removed. YB5 cells were grown in drug-free media for 2 weeks to allow visible colony formation prior to colony staining (0.5% methylene blue in 50% methanol). YB5 colonies were counted manually.

In another test the test system is RNA-Pol II Ser2-P. The experiment in a line: Western blot, RNA Pol II and phospho-Pol II Ser2. Format: cell-based, human. The conditions noted are these: 6 h. As for the experimental part:
YB5 cells were harvested in 50 mM Tris-HCl, 1% NP-40, 1 mM EDTA, 1 mM EGTA, 0.25% sodium deoxycholate, 150 mM NaCl, 50 mM sodium fluoride, and 1X Complete protease cocktail (Roche, Basel, Switzerland) with 1 mM PMSF. The total protein concentration was measured in all samples by standard BCA protocol (Pierce-23225, Thermo Scientific, Waltham, MA, USA) to ensure that an equal amount of protein was added to each sample. Protein extracts were run on 12% SDS–PAGE precast gels (Bio-Rad, Hercules, CA, USA, 345-0118). Proteins were transferred to polyvinylidene difluoride (PVDF) membranes in 10 mmol/L CAPS (pH-11) containing 10% methanol and detected by using specific primary antibodies, horseradish peroxidase–conjugated secondary antibodies (GE Healthcare, Chicago, IL, USA), and an enhanced chemiluminescence reagent (Pierce). PVDF membranes were incubated with specific primary antibodies (actin—A5441, Sigma, St. Louis, MO, USA; HA-tagged—H9608, Sigma; FLAG-tagged—F3165, Sigma). FLAG- and HA-tagged CDK9 plasmids were a generous gift from Dr Bassel E. Sawaya (Temple University). For CDK9 target modulation, HCT116 colon cancer cells were treated with toyocamycin or known CDK9 inhibitor BAY1251152 (Selleckchem, Houston, TX, USA). Whole cell extracts were obtained by lysing cells with 25 mM Tris (pH 7.3) and 1% sodium dodecyl sulfate (SDS). After sonication, total protein concentrations were determined using Bradford protein assay. The following primary antibodies were used to investigate the effect of CDK9 inhibition: Pol II against the N-term region (sc-55492, Santa Cruz, Dallas, TX, USA), Pol II against the C-term region (39097, Active motif, Carlsbad, CA, USA), Pol II phospho CTD ser2 (14-9802-82, Invitrogen, Waltham, MA, USA), Rb (ab181616, Abcam, Cambridge, UK), Rb phospho T826 (ab133446, Abcam, Cambridge, UK), CDK9 (ab39098, Abcam, Cambridge, UK), and actin (ab1801, Abcam, Cambridge, UK). Images were acquired with an Image Quant LAS4000 device from GE Healthcare Life Sciences. Band intensity quantifications were calculated using ImageJ software, edition 1.53 [27].
(A western blot detects proteins with antibodies after separation by electrophoresis.)

In test [2] the test system is 451-Lu-BR human melanoma cells. Briefly: proliferation assay by cell counting. It is filed as cell-based. Here is the method:
Proliferation assays were performed for 451-Lu-BR human melanoma cells in response to toyocamycin exposure. First, 20,000 cells were seeded per well in 24-well plates. Cells were treated with either DMSO (<0.01% final concentration) or various toyocamycin concentrations. Cell proliferation was assessed by cell counting using a hemocytometer (n = 3) after 24, 48, and 72 h of treatment. The data were plotted as the total number of cells in response to toyocamycin for each treatment duration relative to DMSO treated cells.

Consider `N#Cc1cn([C@@H]2O[C@H](CO)[C@@H](O)[C@H]2O)c2ncnc(N)c12` [toyocamycin, 7-Deaza-7-cyanoadenosine], for which the GFP expression entry in test [1] is listed as “induced dose-dependent GFP expression”. Also, the colony formation entry with YB5 cells (10 nM, 24 h treatment) is on record as “completely abrogated colony formation; also recorded: full eradication of the clonogenic potential”; in the test with YB5 cells (10–50 nM, 72 h treatment), “fully abolished colony formation”. Moreover, in the test with RNA-Pol II Ser2-P (HCT116, 350–500 nM), the “RNA-Pol II ser 2 phosphorylation” value was “significantly reduced”. The “RNA Pol II band intensity, Pol II C-terminal antibody” value in the test with RNA-Pol II Ser2-P (HCT116, above 350 nM) is “reduced the RNA Pol II band intensity”. The cell proliferation result in test [2] (72 h treatment) is on record as “full proliferation arrest”; in test [2] (low doses, 24 h treatment) it was “did not reduce cell proliferation”.
